Columns and labels:
[1] = molecular target: Recombinant human c-KIT kinase (Homo sapiens (Human), UniProt P10721); test: c-KIT kinase chemiluminescence assay (ADP-Glo); format: biochemical; settings: ATP 50 μM
How it was run: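 Recombinant human c-KIT preincubated 30 min at RT in 40 mM Tris pH 7.5, 20 mM MgCl2, 0.1 mg/mL BSA, 50 μM DTT, then reacted 2 h at RT with ATP and polyEY substrate. ADP-Glo luminescence readout; activity normalized to high/low controls, IC50 and Hill coefficient from inhibitor-versus-normalized-response fit.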

M-07e cells = test: M-07e cellular assay (SCF-mediated cell proliferation); format: cell-based; settings: Homo sapiens, 72 hours, CellTiter Glo
How it was run: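 EC50 values reflect inhibition of SCF-driven proliferation, with SCF at EC90 and a 72 h compound exposure, measured as CellTiter Glo luminescence. Growth is scaled between no-SCF (0%) and untreated (100%) wells.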

Sequence of Recombinant human c-KIT kinase (P10721 26-976): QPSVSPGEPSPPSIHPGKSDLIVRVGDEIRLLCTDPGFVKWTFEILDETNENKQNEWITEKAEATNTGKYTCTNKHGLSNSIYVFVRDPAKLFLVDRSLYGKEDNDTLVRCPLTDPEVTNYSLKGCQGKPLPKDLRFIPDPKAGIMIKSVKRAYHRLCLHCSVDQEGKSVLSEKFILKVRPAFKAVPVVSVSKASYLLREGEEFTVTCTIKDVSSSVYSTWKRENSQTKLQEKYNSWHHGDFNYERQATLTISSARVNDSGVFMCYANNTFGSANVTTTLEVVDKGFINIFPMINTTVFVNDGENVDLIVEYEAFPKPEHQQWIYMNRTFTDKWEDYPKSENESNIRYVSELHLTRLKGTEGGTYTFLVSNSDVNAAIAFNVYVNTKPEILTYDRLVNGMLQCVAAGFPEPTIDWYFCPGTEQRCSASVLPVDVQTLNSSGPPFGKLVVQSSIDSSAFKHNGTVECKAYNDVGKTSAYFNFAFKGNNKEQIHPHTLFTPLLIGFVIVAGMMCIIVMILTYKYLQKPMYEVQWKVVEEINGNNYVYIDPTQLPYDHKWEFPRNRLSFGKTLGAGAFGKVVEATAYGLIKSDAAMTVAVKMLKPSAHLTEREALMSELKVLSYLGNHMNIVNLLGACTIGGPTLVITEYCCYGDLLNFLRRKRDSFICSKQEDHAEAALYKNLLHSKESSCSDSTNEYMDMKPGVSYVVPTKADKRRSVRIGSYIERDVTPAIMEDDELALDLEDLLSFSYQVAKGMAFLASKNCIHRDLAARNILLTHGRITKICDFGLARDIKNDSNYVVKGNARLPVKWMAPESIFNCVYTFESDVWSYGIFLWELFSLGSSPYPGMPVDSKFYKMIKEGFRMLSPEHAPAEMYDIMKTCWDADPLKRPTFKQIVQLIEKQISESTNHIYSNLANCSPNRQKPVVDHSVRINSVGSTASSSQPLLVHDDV

Row | SMILES | IC50 [1] [nM] | EC50 (M-07e cells) [nM]
1 | Cc1ccc(-c2noc([C@H]3C[C@@H]3F)n2)cc1NC(=O)c1cnn2cc(-c3cccnc3)ccc12 [Example 151] | < 100 | < 100
2 | Cc1ccc(-c2noc([C@H]3C[C@@H]3F)n2)cc1NC(=O)c1cnn2ccc(-c3c(C)nn(CC(C)(C)O)c3C)cc12 [Example 152] | < 100 | < 100
3 | COCCn1cc(-c2ccn3ncc(C(=O)Nc4cc(-c5noc([C@H]6C[C@@H]6F)n5)ccc4C)c3c2)cn1 [Example 153] | < 100 | < 100
4 | Cc1ccc(-c2noc([C@H]3C[C@@H]3F)n2)cc1NC(=O)c1cnn2ccc(-c3cncnc3)cc12 [Example 154] | < 100 | < 100
5 | Cc1ccc(-c2noc([C@H]3C[C@@H]3F)n2)cc1NC(=O)c1cnn2cc(-c3cncnc3)ccc12 [Example 155] | 100 to 1000 | 100 to 1000
6 | Cc1ccc(-c2noc([C@H]3C[C@@H]3F)n2)cc1NC(=O)c1cnn2ccc(-c3cnc(N(C)C)nc3)cc12 [Example 156] | < 100 | < 100
7 | Cc1ccc(-c2noc([C@H]3C[C@@H]3F)n2)cc1NC(=O)c1cnn2ccc(-c3cnc(C(F)(F)F)nc3)cc12 [Example 157] | 100 to 1000 | 100 to 1000
8 | Cc1ccc(-c2noc([C@H]3C[C@@H]3F)n2)cc1NC(=O)c1cnn2ccc(-c3cnc(C(C)(C)O)nc3)cc12 [Example 158] | 100 to 1000 | < 100
9 | Cc1ccc(-c2noc([C@H]3C[C@@H]3F)n2)cc1NC(=O)c1cnn2ccc(-c3cnc(NC4CC4)nc3)cc12 [Example 159] | < 100 | < 100
10 | Cc1ccc(-c2noc([C@H]3C[C@@H]3F)n2)cc1NC(=O)c1cnn2ccc(-c3cnc(C4CC4)nc3)cc12 [Example 160] | < 100 | < 100
11 | Cc1ccc(-c2noc([C@H]3C[C@@H]3F)n2)cc1NC(=O)c1cnn2ccc(-c3c(C)n[nH]c3C)cc12 [Example 161] | < 100 | < 100
12 | Cc1ccc(-c2noc([C@H]3C[C@@H]3F)n2)cc1NC(=O)c1cnn2ccc(-c3c(C)nn(CCN4CCOCC4)c3C)cc12 [Example 162] | < 100 | < 100
13 | Cc1ncc(-c2ccn3ncc(C(=O)Nc4cc(-c5noc([C@H]6C[C@@H]6F)n5)ccc4C)c3c2)cn1 [Example 163] | < 100 | < 100
14 | Cc1ccc(-c2noc([C@H]3C[C@@H]3F)n2)cc1NC(=O)c1cnn2cc(F)c(-c3c(C)nn(CC(C)(C)O)c3C)cc12 [Example 164] | 100 to 1000 | 100 to 1000
15 | Cc1ccc(-c2noc([C@H]3C[C@@H]3F)n2)cc1NC(=O)c1cnn2cc(Cl)c(-c3c(C)nn(CC(C)(C)O)c3C)cc12 [Example 165] | > 1000 | 100 to 1000
16 | Cc1ccc(-c2noc([C@H]3C[C@@H]3F)n2)cc1NC(=O)c1cnn2cc(F)c(-c3c(C)nn(C(F)F)c3C)cc12 [Example 166] | > 1000 | 100 to 1000
17 | Cc1ccc(-c2noc([C@H]3C[C@@H]3F)n2)cc1NC(=O)c1cnn2ccc(C3CC4(C3)CC(F)(F)C4)cc12 [Example 167-1] | < 100 | < 100
18 | Cc1ccc(-c2noc([C@H]3C[C@@H]3F)n2)cc1NC(=O)c1cnn2cc(Cl)c(-c3c(C)nn(C(F)F)c3C)cc12 [Example 167] | > 1000 | > 1000
19 | Cc1ncc(-c2ccc3c(C(=O)Nc4cc(-c5noc([C@H]6C[C@@H]6F)n5)ccc4C)cnn3c2)c(C)n1 [Example 169] | 100 to 1000 | 100 to 1000
20 | Cc1nc(C)c(-c2ccn3ncc(C(=O)Nc4cc(-c5noc([C@H]6C[C@@H]6F)n5)ccc4C)c3c2)s1 [Example 170] | < 100 | < 100
21 | Cc1ccc(-c2noc([C@H]3C[C@@H]3F)n2)cc1NC(=O)c1cnn2ccc(-c3nnc(N)nc3C)cc12 [Example 171-1] | < 100 | < 100
22 | Cc1cc(C)c(-c2ccn3ncc(C(=O)Nc4cc(-c5noc([C@H]6C[C@@H]6F)n5)ccc4C)c3c2)c(C)c1 [Example 171-2] | > 1000 | > 1000
23 | Cc1cc(C)c(-c2ccn3ncc(C(=O)Nc4cc(-c5noc([C@H]6C[C@@H](OC(F)(F)F)C6)n5)ccc4C)c3c2)c(C)c1 [Example 171-3] | > 1000 | > 1000

Row | SMILES | IC50 [1] [nM] | EC50 (M-07e cells) [nM]
24 | Cc1nc(C)c(-c2ccn3ncc(C(=O)Nc4cc(-c5noc([C@H]6C[C@@H]6F)n5)ccc4C)c3c2)c(C)n1 [Example 171-4] | 100 to 1000 | 100 to 1000
25 | Cc1nc(C)c(-c2ccn3ncc(C(=O)Nc4cc(-c5noc([C@H]6C[C@@H](OC(F)(F)F)C6)n5)ccc4C)c3c2)c(C)n1 [Example 171-5] | 100 to 1000 | 100 to 1000
26 | Cc1ccc(-c2noc([C@H]3C[C@@H]3F)n2)cc1NC(=O)c1cnn2ccc(-c3c(C)nc(N)nc3C)cc12 [Example 171-6] | 100 to 1000 | < 100
27 | Cc1ccc(-c2noc([C@H]3C[C@@H](OC(F)(F)F)C3)n2)cc1NC(=O)c1cnn2ccc(-c3c(C)nc(N)nc3C)cc12 [Example 171-7] | 100 to 1000 | 100 to 1000
28 | Cc1ccc(-c2noc([C@H]3C[C@@H]3F)n2)cc1NC(=O)c1cnn2ccc(-c3c(C)nc(Cl)nc3C)cc12 [Example 171-8] | 100 to 1000 | 100 to 1000
29 | Cc1ccc(-c2noc([C@H]3C[C@@H]3F)n2)cc1NC(=O)c1cnn2ccc(-c3cnccn3)cc12 [Example 171-9] | < 100 | < 100
30 | Cc1ncc(-c2noc([C@H]3C[C@@H]3F)n2)cc1NC(=O)c1cnn2ccc(-c3c(C)nc(N)nc3C)cc12 [Example 171-10] | > 1000 | > 1000
31 | Cc1ccc(-c2noc([C@H]3C[C@@H]3F)n2)cc1NC(=O)c1cnn2ccc(-c3c(C)nc(N4CCC4)nc3C)cc12 [Example 171-12] | 100 to 1000 | 100 to 1000
32 | Cc1ccc(-c2noc([C@H]3C[C@@H]3F)n2)cc1NC(=O)c1cnn2ccc(-c3c(C)nc(N4CC(F)(F)C4)nc3C)cc12 [Example 171-13] | 100 to 1000 | 100 to 1000
33 | Cc1ccc(-c2noc([C@H]3C[C@@H]3F)n2)cc1NC(=O)c1cnn2ccc(-c3c(C)nc(N4CC5(COC5)C4)nc3C)cc12 [Example 171-14] | 100 to 1000 | 100 to 1000
34 | Cc1ccc(-c2ccn3ncc(C(=O)Nc4cc(-c5noc([C@H]6C[C@@H]6F)n5)ccc4C)c3c2)c(C)n1 [Example 171-15] | < 100 | < 100
35 | Cc1ccc(-c2noc([C@H]3C[C@@H]3F)n2)cc1NC(=O)c1cnn2ccc(-c3ccc(C#N)nc3C)cc12 [Example 171-16] | < 100 | < 100
36 | Cc1ccc(-c2noc([C@H]3C[C@@H]3F)n2)cc1NC(=O)c1cnn2ccc(-c3ccc(N4CC(F)(F)C4)nc3C)cc12 [Example 171-17] | < 100 | < 100
37 | Cc1ccc(-c2noc([C@H]3C[C@@H]3F)n2)cc1NC(=O)c1cnn2ccc(-c3ccc(N4CCOCC4)nc3C)cc12 [Example 171-18] | < 100 | < 100
38 | Cc1ccc(-c2noc([C@H]3C[C@@H]3F)n2)cc1NC(=O)c1cnn2ccc(-c3ccc(N4CC5(COC5)C4)nc3C)cc12 [Example 171-19] | < 100 | < 100
39 | COc1ccc(-c2ccn3ncc(C(=O)Nc4cc(-c5noc([C@H]6C[C@@H]6F)n5)ccc4C)c3c2)c(C)n1 [Example 171-20] | < 100 | < 100
40 | Cc1ccc(-c2noc([C@H]3C[C@@H]3F)n2)cc1NC(=O)c1cnn2ccc(-c3cc(C(F)(F)F)nn3C)cc12 [Example 171-22] | 100 to 1000 | 100 to 1000
41 | Cc1ccc(-c2noc([C@H]3C[C@@H]3F)n2)cc1NC(=O)c1cnn2ccc(-c3cc(C(F)(F)F)nn3C(C)C)cc12 [Example 171-23] | > 1000 | > 1000
42 | Cc1ccc(-c2noc([C@H]3C[C@@H]3F)n2)cc1NC(=O)c1cnn2ccc(-c3cnc(N4CC(F)(F)C4)cc3C)cc12 [Example 171-24] | < 100 | < 100
43 | Cc1ccc(-c2noc([C@H]3C[C@@H]3F)n2)cc1NC(=O)c1cnn2ccc(-c3cnc(N4CC5(COC5)C4)cc3C)cc12 [Example 171-25] | < 100 | < 100
44 | Cc1cc(C)c(-c2ccn3ncc(C(=O)Nc4cc(-c5noc([C@H]6C[C@@H]6F)n5)ccc4C)c3c2)cn1 [Example 171-26] | < 100 | < 100
45 | Cc1ccc(-c2noc([C@H]3C[C@@H]3F)n2)cc1NC(=O)c1cnn2ccc(-c3cnc(N)cc3C)cc12 [Example 171-28] | < 100 | < 100
